Experimental data: patent US8232248B2, “Treatment of rheumatoid arthritis with mammal beta defensins” (Novozymes Adenium Biotech A/S, priority 2008, dated 2012)
Where no end group is shown, it is not given here.

Tests used:
[1] = tested on: TNF production from human peripheral blood mononuclear cells (PBMC); test: TNF production from PBMC stimulated with LPS, LTA, PGN or Pam3CSK4, 24 h, Cytometric Bead Array; type: cell-based; settings: for TNF % of control / TNF: Table 18
Experimental: (§1) Peripheral blood was drawn from healthy volunteers (with approval from the relevant ethical committee in Denmark). Heparinized blood was diluted 1/1 v/v with RPMI and were subjected to Ficoll density centrifugation within 2 h of drawing. Plasma was collected from the top from individual donors and was kept on ice until it was used at 2% in the culture medium (autologous culture medium). Isolated PBMC were resuspended in autologous culture medium and seeded in 96-well culture plates with 255.000 cells per well in a total of 200 μl. […] The concentrations used for stimulation were optimized on 3 different donors in initial experiments, for LPS two different concentrations were used to be sure to be on a cytokine level that is possible to modulate. In some experiments PBMC were treated with Dexamethason and Indomethacin alone and together with LPS or LTA as a control on downregulation of inflammatory cytokines. The supernatants were collected after incubation at 37° C. for 24 hours, and stored at −80° C. until cytokine measurement. Viability was measured by Alamar Blue (Biosource, DALL 1100) in all experiments and in some cases also by MTS (Promega) according to manufacturer's instruction and was in some experiments also judged by counting of the cells by a Nucleocounter.
(§2) Cytokine production in supernatants was measured by flow cytometry with a human inflammation cytometric bead array (CBA) according to manufacturer's instructions (BD) on a FACSarray flow cytometer. The following cytokines were measured: IL-8, IL-1β, IL-10, TNF, IL-12 p70, IL-6. In some experiments, cytokines were measured by ELISA kits from R&D systems (IL-10, TNF-α, IL-1β) according to the manufacturer' instruction.
(§3) All experiments were performed at least twice, with representative results shown. The data presented are expressed as mean plus/minus standard deviation (SD). […] Differences were considered significant for p<0.05.
Example 3 was carried out essentially as described in Example 2. […]

[2] = tested on: IL-1β production from human peripheral blood mononuclear cells (PBMC); test: IL-1β production from PBMC stimulated with LPS or LTA, 24 h, Cytometric Bead Array; type: cell-based; settings: Table 20
Experimental: as §1, §2, §3

[3] = tested on: IL-10 production from human peripheral blood mononuclear cells (PBMC); test: IL-10 production from PBMC stimulated with LPS, LTA or PGN, 24 h, Cytometric Bead Array; type: cell-based; settings: Table 19
Experimental: as §1, §2, §3

PBMC = PBMC viability, Alamar Blue; type: cell-based, human; settings: 10 μg/ml and 40 μg/ml
Experimental: as §1

[4] = tested on: TNF production from mouse peripheral blood mononuclear cells (PBMC); test: TNF production from mouse PBMC, mouse inflammation CBA; type: cell-based
Experimental: Mouse peripheral blood mononuclear cells were isolated from blood of ten NMRI mice. In short, heparinized blood was diluted 1/1 v/v with RPMI and subjected to Ficoll density centrifugation within 2 h of drawing. Plasma was collected from the top and discarded. Isolated PBMC were resuspended in culture medium (RPMI 1640 (Gibco, 42401) w/1% penicillin and streptomycin and 1% L-Glutamine) and seeded in 96-well culture plates with 115.500 cells per well in a total of 200 μl. […] The supernatants were collected after incubation at 37° C. for 24 hours, and stored at −80° C. until cytokine measurement.
Cytokine production in supernatants was measured by flow cytometry with a mouse inflammation cytometric bead array (CBA) according to manufacturer's instructions (BD) on a FACSarray flow cytometer.

[5] = test compound 1 μg/ml, LPS 0.6 ng/ml
[6] = test compound 1 μg/ml, LPS 0.6 ng/ml, non-treated 728
[7] = test compound 1 μg/ml, LPS 20 ng/ml
[8] = test compound 1 μg/ml, LPS 20 ng/ml, non-treated 2164
[9] = test compound 1 μg/ml, Medium, non-treated 1
[10] = test compound 10 μg/ml, LPS 0.6 ng/ml
[11] = test compound 10 μg/ml, LPS 20 ng/ml
[12] = test compound 40 μg/ml, LPS 0.6 ng/ml
[13] = test compound 40 μg/ml, LPS 20 ng/ml
[14] = test compound 1 μg/ml, LPS 0.6 ng/ml, non-treated 741
[15] = test compound 1 μg/ml, LPS 20 ng/ml, non-treated 2544
[16] = test compound 1 μg/ml, Medium, non-treated 0
[17] = test compound 10 μg/ml, Medium, non-treated 0
[18] = test compound 40 μg/ml, Medium, non-treated 0
[19] = test compound 1 μg/ml, LPS 0.6 ng/ml, non-treated 66

With “hBD1: human beta defensin 1, SEQ ID NO:1, obtained from Peptide Institute Inc. (DHYNCVSSGGQCLYSACPIFTKIQGTCYRGKAKCCK; ends and bridges not checked; cysteine pairing not given here; listed as Homo sapiens)” the “TNF % of control” value [1, 5] was 65%, the TNF [1, 6] was 474 pg/mL and the “TNF % of control” value [1, 7] was 64%. For the same substance, the TNF [1, 8] was 1395 pg/mL, the TNF [1, 9] was 1 pg/mL and the “TNF % of control” value [1, 10] was 28%. The TNF ([1]; test compound 10 μg/ml, LPS 0.6 ng/ml, non-treated 728) was 203 pg/mL, the “TNF % of control” value [1, 11] was 61% and the TNF ([1]; test compound 10 μg/ml, LPS 20 ng/ml, non-treated 2164) was 1311 pg/mL. For the same substance, the TNF ([1]; test compound 10 μg/ml, Medium, non-treated 1) was 0 pg/mL, the “TNF % of control” value [1, 12] was 13% and the TNF ([1]; test compound 40 μg/ml, LPS 0.6 ng/ml, non-treated 728) was 91 pg/mL. For the same substance, the “TNF % of control” value [1, 13] was 46%, the TNF ([1]; test compound 40 μg/ml, LPS 20 ng/ml, non-treated 2164) was 999 pg/mL and the TNF ([1]; test compound 40 μg/ml, Medium, non-treated 1) was 0 pg/mL. For the same substance, the “IL-1β % of control” value [2, 5] was 69%, the IL-1β [2, 14] was 512 pg/mL and the “IL-1β % of control” value [2, 7] was 82%. For the same substance, the IL-1β [2, 15] was 2087 pg/mL, the IL-1β [2, 16] was 0 pg/mL and the “IL-1β % of control” value [2, 10] was 54%. The IL-1β ([2]; test compound 10 μg/ml, LPS 0.6 ng/ml, non-treated 741) was 401 pg/mL, the “IL-1β % of control” value [2, 11] was 75% and the IL-1β ([2]; test compound 10 μg/ml, LPS 20 ng/ml, non-treated 2544) was 1913 pg/mL. The IL-1β [2, 17] was 0 pg/mL, the “IL-1β % of control” value [2, 12] was 41% and the IL-1β ([2]; test compound 40 μg/ml, LPS 0.6 ng/ml, non-treated 741) was 302 pg/mL. For the same substance, the “IL-1β % of control” value [2, 13] was 63%, the IL-1β ([2]; test compound 40 μg/ml, LPS 20 ng/ml, non-treated 2544) was 1599 pg/mL and the IL-1β [2, 18] was 0 pg/mL. For the same substance, the “IL-10 % of control” value [3, 5] was 108%, the IL-10 [3, 19] was 71 pg/mL and the “IL-10 % of control” value [3, 7] was 85%. The IL-10 ([3]; test compound 1 μg/ml, LPS 20 ng/ml, non-treated 111) was 95 pg/mL, the IL-10 [3, 16] was 0 pg/mL and the “IL-10 % of control” value [3, 10] was 114%. The IL-10 ([3]; test compound 10 μg/ml, LPS 0.6 ng/ml, non-treated 66) was 76 pg/mL, the “IL-10 % of control” value [3, 11] was 90% and the IL-10 ([3]; test compound 10 μg/ml, LPS 20 ng/ml, non-treated 111) was 100 pg/mL. For the same substance, the IL-10 [3, 17] was 0 pg/mL, the “IL-10 % of control” value [3, 12] was 104% and the IL-10 ([3]; test compound 40 μg/ml, LPS 0.6 ng/ml, non-treated 66) was 69 pg/mL. The “IL-10 % of control” value [3, 13] was 102%, the IL-10 ([3]; test compound 40 μg/ml, LPS 20 ng/ml, non-treated 111) was 113 pg/mL and the IL-10 [3, 18] was 0 pg/mL.

“hBD3: human beta defensin 3, SEQ ID NO:3, obtained from Peptide Institute Inc.” was tested, and the “TNF % of control” value [1, 5] was 73%, the TNF [1, 6] was 528 pg/mL and the “TNF % of control” value [1, 7] was 21%. The TNF [1, 8] was 451 pg/mL, the TNF [1, 9] was 0 pg/mL and the “Toxicity to the cells” value (PBMC) was “toxic to the cells”. For the same substance, the “IL-1β % of control” value [2, 5] was 45%, the IL-1β [2, 14] was 331 pg/mL and the “IL-1β % of control” value [2, 7] was 22%. For the same substance, the IL-1β [2, 15] was 568 pg/mL, the IL-1β [2, 16] was 0 pg/mL and the “IL-10 % of control” value [3, 5] was 107%. For the same substance, the IL-10 [3, 19] was 71 pg/mL, the “IL-10 % of control” value [3, 7] was 137% and the IL-10 [3, 16] was 0 pg/mL.

In the case of “mBD3: mouse beta defensin 3, SEQ ID NO:6, prepared with the same protocol as hBD2 (KINNPVSCLRKGGRCWNRCIGNTRQIGSCGVPFLKCCKRK; ends and bridges not checked; cysteine pairing not given here; listed as Mus musculus)”, the “Secretion of TNF from human PBMCs” value ([1]; Table 23) is reported as “downregulating the secretion of TNF from human PBMCs to the same extend as hBD2 and dexamethason”, the TNF ([4]; mBD3 1 μg/ml, LPS 20 ng/ml, untreated 2063) is reported as 1600 pg/mL and the TNF ([4]; mBD3 1 μg/ml, Medium, untreated 578) is reported as 347 pg/mL. For the same substance, the TNF ([4]; mBD3 10 μg/ml, LPS 20 ng/ml, untreated 2063) was 297 pg/mL, the TNF ([4]; mBD3 10 μg/ml, Medium, untreated 578) was 180 pg/mL and the TNF ([4]; mBD3 100 μg/ml, LPS 20 ng/ml, untreated 2063) was 195 pg/mL. The TNF ([4]; mBD3 100 μg/ml, Medium, untreated 578) was 182 pg/mL.
